This is an account of results in article PMC11508649 (International Journal of Molecular Sciences, 2024).

Read-outs that look alike come from different tables or passages of the source. Marks after values point to notes of the source that are not given here.

As a reminder, the Ki is a dissociation constant, usually derived from enzyme kinetics or from competition with a known ligand.

One assay has as its target human D2 receptor (Homo sapiens, UniProt P14416). Put plainly: D2 receptor binding assay. The settings on record: cloned human D2 receptor; read-out: Ki ± SEM D2. The protocol:
(§1) Specifically, we assessed the displacement of [^3H]-raclopride, [^3H]-LSD, and [^3H]-5-CT from the cloned human D2L, 5-HT6, and 5-HT7 receptor, respectively, stably expressed in HEK293 cells, and [^3H]-ketanserin from the 5-HT2A receptor from the rat cortex.
(§2) Each compound was tested in 6 concentrations from 10–5 to 10–10 M (final concentration).
(§3) All assays were carried out in duplicates.

The target of the next assay is T1, human 5-HT7b receptor (Homo sapiens, UniProt P34969).
T1 construct: expressed in transfected cells; host or cells: HEK293
T1 sequence (P34969 1-432 limits assumed): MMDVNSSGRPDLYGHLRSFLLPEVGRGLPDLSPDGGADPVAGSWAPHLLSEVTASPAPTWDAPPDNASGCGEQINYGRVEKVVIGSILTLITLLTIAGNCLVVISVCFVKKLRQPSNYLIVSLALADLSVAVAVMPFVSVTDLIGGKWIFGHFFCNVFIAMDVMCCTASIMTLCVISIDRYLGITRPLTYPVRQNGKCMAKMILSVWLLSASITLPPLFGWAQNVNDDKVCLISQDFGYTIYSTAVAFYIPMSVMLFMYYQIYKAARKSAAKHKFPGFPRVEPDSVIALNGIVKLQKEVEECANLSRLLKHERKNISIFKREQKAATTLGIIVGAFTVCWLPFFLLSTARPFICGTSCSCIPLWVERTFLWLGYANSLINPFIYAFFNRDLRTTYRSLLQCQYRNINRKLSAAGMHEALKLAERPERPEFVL
Put plainly: 5-HT7 receptor binding ([3H]-5-CT, HEK293 cells). The settings on record: cloned human receptor in HEK293, read-out: Ki ± SEM 5-TH7. The protocol: as §1
(§4) For membrane preparation, cells were subcultured in 10 cm-diameter dishes, grown to 90% confluence, washed twice with prewarmed to 37 °C phosphate buffered saline (PBS) and pelleted by centrifugation (200 g) in PBS containing 0.1 mM EDTA and 1 mM dithiothreitol. Prior to membrane preparation, pellets were stored at −80 °C.
(§5) Cell pellets were thawed and homogenised in 20 volumes of assay buffer using an Ultra Turrax tissue homogeniser and centrifuged twice at […] for 20 min at 4 °C, with incubation for 15 min at 37 °C in between. The composition of the assay buffers was as follows: for 5-HT6R, 50 mM Tris-HCl, 0.5 mM EDTA and 4 mM MgCl2; and for 5-HT7bR, 50 mM Tris-HCl, 4 mM MgCl2, 10 μM pargyline and 0.1% ascorbate. All assays were incubated in a total volume of 200 μL in 96-well microtitre plates for 1 h at 37 °C. The process of equilibration was terminated by rapid filtration through Unifilter plates with a 96-well cell harvester, and radioactivity retained on the filters was quantified on a Microbeta plate reader. For displacement studies, the assay samples contained radioligands such as 2 nM [^3H]-LSD (85.2 Ci/mmol for 5-HT6R) or 0.6 nM [^3H]-5-CT (39.2 Ci/mmol) for 5-HT7R. Non-specific binding was defined using 10 μM methiothepine in the 5-HT6R or 5-HT7R binding experiments, respectively. Each compound was tested in triplicate at 7–8 concentrations (10^−11–10^−4 M). The inhibition constants (Ki) were calculated using the Cheng–Prusoff equation. Membrane preparation and general assay procedures for cloned receptors were adjusted to a 96-microwell format based on protocols previously described by us.

The target in assay [1] is human norepinephrine transporter (Homo sapiens, UniProt P23975). The experiment in a line: NET binding assay ([3H]-nisoxetine, MDCK membranes).
Chain of human norepinephrine transporter (P23975 whole entry): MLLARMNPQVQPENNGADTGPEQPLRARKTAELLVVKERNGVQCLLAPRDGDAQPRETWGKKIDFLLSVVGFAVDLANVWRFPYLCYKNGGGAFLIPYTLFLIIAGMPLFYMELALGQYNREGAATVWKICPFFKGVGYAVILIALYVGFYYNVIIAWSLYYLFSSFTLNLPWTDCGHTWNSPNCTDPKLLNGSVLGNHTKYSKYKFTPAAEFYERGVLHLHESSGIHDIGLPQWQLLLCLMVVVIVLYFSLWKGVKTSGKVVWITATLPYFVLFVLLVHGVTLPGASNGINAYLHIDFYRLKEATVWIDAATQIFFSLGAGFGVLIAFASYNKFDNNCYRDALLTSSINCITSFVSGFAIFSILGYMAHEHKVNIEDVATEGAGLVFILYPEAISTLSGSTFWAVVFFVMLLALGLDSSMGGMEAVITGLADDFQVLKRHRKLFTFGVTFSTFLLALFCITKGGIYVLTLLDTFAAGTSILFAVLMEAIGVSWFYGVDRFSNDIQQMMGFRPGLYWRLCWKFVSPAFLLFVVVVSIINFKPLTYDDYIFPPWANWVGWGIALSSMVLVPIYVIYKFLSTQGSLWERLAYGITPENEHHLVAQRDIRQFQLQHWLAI
Method: We performed radioligand binding assays using membranes from CHO-K1 cells stably transfected with human DAT and membranes from MDCK cells stably transfected with human NET. This was accomplished by assessing the displacement of [^3H]-WIN35,428 and [^3H]-nisoxetine from cloned human DAT and NET, respectively.
(§6) Ten-micromolar stock solutions of tested compounds were prepared in DMSO. […] Each compound was tested in a screening assay at final concentrations of 10 µM and 1 µM. Results were expressed as percent inhibition of radioligand binding. Reference compounds were tested in 8 concentrations from 10^−5 to 10^−12 M (final concentration).
Radioligand binding was performed using membranes from MDCK cells stably transfected with the human norepinephrine transporter (PerkinElmer, Waltham, MA, USA). All assays were carried out in duplicates. Measures of 50 µL of working solution of the tested compounds, 50 µL of [^3H]-nisoxetine (final concentration 4 nM) and 150 µL of diluted membranes (3 µg protein per well) prepared in assay buffer (50 mM Tris-HCl, pH 7.4, 120 mM NaCl; 5 mM KCl) were transferred to a polypropylene 96-well microplate using the 96-well pipetting station Rainin Liquidator (MettlerToledo, Beverly, MA, USA). […] The microplate was covered with sealing tape, mixed and incubated for 60 min at 4 °C. The reaction was terminated by rapid filtration through GF/C filter mate pre-soaked with 0.5% polyethyleneimine for 30 min. Ten rapid washes with 200 µL of 50 mM Tris buffer (4 °C, pH 7.4) were performed using the automated harvester system Harvester-96 MACH III FM (Tomtec, Hamden, CT, USA). […] Radioactivity was counted using a MicroBeta2 scintillation counter (PerkinElmer, Turku, Finland). Data were fitted to a one-site curve-fitting equation with Prism 5 (GraphPad Software), and Ki values were estimated using the Cheng–Prusoff equation.
Another assay deals with T2, human 5-HT6 receptor (Homo sapiens, UniProt P50406).
T2 construct: expressed in transfected cells; host or cells: HEK293
T2 sequence (P50406 whole entry): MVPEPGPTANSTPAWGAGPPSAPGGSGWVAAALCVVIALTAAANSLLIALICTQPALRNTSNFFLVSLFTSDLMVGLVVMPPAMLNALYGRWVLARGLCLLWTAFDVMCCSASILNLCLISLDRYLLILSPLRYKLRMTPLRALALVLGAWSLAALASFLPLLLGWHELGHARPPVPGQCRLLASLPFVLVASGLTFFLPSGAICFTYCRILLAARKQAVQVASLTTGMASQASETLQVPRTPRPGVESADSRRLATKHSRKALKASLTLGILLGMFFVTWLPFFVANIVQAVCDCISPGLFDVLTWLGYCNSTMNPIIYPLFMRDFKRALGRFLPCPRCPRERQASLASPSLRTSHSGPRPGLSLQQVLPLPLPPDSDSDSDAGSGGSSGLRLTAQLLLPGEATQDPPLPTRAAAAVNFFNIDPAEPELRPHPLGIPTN
Put plainly: 5-HT6 receptor binding ([3H]-LSD, HEK293 cells). To be noted: cloned human receptor in HEK293, read-out: Ki ± SEM 5-HT6. On the procedure:
as §1, §4, §5

Another assay deals with α1-adrenoceptor. Put plainly: ADRA1 receptor binding assay ([3H]-prazosin, rat cortex). To be noted: read-out: Ki ± SEM α1.
For assay [2], the target named is T3, human serotonin transporter (Homo sapiens, UniProt P31645).
T3 construct: purchased PerkinElmer; host or cells: HEK-293
T3 sequence (P31645 whole entry): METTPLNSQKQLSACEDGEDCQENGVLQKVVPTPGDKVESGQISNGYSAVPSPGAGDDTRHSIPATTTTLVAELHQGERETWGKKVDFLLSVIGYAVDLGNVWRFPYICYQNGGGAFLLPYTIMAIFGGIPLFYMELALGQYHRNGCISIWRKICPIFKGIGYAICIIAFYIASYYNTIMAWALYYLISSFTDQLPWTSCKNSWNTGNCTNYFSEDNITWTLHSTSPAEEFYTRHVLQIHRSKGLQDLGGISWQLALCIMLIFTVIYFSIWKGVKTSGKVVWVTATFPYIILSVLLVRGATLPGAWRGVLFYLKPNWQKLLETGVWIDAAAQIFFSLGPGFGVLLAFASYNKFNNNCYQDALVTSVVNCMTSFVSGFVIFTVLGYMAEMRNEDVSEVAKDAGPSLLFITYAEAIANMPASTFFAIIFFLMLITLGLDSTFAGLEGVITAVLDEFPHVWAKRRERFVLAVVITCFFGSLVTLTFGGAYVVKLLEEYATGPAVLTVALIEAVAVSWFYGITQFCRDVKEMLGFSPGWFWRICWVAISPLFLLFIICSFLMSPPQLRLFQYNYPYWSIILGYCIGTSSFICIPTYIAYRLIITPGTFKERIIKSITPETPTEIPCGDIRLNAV
The experiment in a line: Serotonin transporter radioligand binding ([3H]-imipramine, HEK-293 membranes). The settings on record: displacement of [3H]-imipramine, HEK-293 membranes; mean ± SEM of three experiments; read-out: Ki ± SEM SERT. The protocol:
as §2, §3

Another assay concerns the target T4, 5-HT2A receptor (Rattus norvegicus, UniProt P14842).
T4 construct: and for the native 5-HT2A receptor; from tissue; host or cells: rat cortex
The experiment in a line: 5-HT2A binding assay ([3H]-ketanserin, rat cortex). The settings on record: read-out: Ki ± SEM 5-HT2A. On the procedure: as §1
Tissue preparations (rat cortex) and competition binding experiments for 5-HT2A receptors were carried out according to a previously described, standard technique using 0.5 nM of [^3H]-ketanserin as the radioligand and 10 μM of methysergide to determine non-specific binding. Following 20 min of incubation, the samples containing receptor homogenates and the investigated compounds (7–9 concentrations run in triplicate) were rapidly filtered under vacuum through GF/B glass fibre filters; the filters were washed extensively with an ice-cold buffer using a Brandel harvester. Bound radioactivity was measured by scintillation counting using a liquid scintillation cocktail. The inhibition constants (Ki) were calculated using the Cheng–Prusoff equation. Results are expressed as the means of at least three separate experiments.

Assay [3] concerns the target T5, human 5-HT1A receptor (Homo sapiens, UniProt P08908).
T5 construct: purchased PerkinElmer; host or cells: CHO-K1
T5 sequence (P08908 1-422): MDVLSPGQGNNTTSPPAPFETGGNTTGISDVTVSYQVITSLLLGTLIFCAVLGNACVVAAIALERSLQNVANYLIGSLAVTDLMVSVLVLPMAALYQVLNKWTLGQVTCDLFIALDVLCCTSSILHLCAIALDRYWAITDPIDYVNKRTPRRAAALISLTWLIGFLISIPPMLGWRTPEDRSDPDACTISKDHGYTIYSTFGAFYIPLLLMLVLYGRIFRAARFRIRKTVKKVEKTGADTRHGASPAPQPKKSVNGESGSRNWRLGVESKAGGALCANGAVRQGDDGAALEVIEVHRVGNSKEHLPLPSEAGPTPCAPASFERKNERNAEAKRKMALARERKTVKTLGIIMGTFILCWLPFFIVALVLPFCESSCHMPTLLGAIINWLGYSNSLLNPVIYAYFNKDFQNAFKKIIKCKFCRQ
The experiment in a line: 5-HT1A receptor radioligand binding ([3H]-8-OH-DPAT, CHO-K1 membranes). To be noted: displacement of [3H]-8-OH-DPAT, mean ± SEM of three experiments, NC = not converged. On the procedure: as §2, §3

Assay [4] deals with human dopamine transporter (Homo sapiens, UniProt Q01959). Put plainly: DAT binding assay ([3H]-WIN 35,428, CHO-K1 membranes).
Chain of human dopamine transporter (Q01959 whole entry): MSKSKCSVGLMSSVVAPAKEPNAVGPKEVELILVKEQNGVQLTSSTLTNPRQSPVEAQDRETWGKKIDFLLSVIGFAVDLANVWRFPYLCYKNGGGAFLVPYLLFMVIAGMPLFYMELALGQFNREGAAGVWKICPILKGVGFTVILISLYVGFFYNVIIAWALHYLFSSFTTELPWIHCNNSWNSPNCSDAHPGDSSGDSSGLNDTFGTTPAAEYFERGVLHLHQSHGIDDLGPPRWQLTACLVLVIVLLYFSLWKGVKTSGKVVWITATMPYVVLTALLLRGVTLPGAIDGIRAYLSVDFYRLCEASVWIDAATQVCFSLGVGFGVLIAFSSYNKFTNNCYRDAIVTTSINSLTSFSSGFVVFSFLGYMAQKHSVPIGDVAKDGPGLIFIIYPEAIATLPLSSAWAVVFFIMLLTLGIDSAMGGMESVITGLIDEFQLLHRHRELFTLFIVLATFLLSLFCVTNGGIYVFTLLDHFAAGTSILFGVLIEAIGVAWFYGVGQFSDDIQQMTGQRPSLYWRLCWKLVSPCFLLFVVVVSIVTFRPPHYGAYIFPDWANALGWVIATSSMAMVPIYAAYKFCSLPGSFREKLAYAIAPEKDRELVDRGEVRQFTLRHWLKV
Method: as §6
Radioligand binding was performed using membranes from CHO-K1 cells stably transfected with the human dopamine transporter (PerkinElmer, Waltham, MA, USA). All assays were carried out in duplicates. […] The microplate was covered with sealing tape, mixed and incubated for 120 min at 4 °C. The reaction was terminated by rapid filtration through GF/C filter mate pre-soaked with 0.5% polyethyleneimine for 30 min. Ten rapid washes with 200 µL of 50 mM Tris buffer (4 °C, pH 7.4) were performed using the automated harvester system Harvester-96 MACH III FM (Tomtec, Hamden, CT, USA). […] Radioactivity was counted using a MicroBeta2 scintillation counter (PerkinElmer, Turku, Finland). Data were fitted to a one-site curve-fitting equation with Prism 5 (GraphPad Software), and Ki values were estimated using the Cheng–Prusoff equation.
Assay [5] concerns the target T3, human serotonin transporter. The settings on record: previously described 1H-indole analogues; read-out: Ki ± SEM SERT; cited from earlier work.
Assay [6] deals with T5, human 5-HT1A receptor. To be noted: previously described 1H-indole analogues; read-out: Ki ± SEM 5-HT1A; cited from earlier work.

Chain of human D2 receptor (P14416 whole entry): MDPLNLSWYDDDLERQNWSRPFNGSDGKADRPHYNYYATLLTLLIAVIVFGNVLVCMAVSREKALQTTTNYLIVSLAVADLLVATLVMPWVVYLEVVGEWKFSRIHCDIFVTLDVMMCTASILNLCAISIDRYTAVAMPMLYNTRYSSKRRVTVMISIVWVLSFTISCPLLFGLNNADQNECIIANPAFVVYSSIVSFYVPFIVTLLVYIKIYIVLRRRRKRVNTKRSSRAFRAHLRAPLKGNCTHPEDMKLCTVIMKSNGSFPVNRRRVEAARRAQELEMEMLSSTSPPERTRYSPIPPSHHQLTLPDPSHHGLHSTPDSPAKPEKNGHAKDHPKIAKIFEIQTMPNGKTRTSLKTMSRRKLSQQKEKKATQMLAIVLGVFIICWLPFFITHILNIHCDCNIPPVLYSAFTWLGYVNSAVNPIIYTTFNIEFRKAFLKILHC
T4 sequence (P14842 whole entry): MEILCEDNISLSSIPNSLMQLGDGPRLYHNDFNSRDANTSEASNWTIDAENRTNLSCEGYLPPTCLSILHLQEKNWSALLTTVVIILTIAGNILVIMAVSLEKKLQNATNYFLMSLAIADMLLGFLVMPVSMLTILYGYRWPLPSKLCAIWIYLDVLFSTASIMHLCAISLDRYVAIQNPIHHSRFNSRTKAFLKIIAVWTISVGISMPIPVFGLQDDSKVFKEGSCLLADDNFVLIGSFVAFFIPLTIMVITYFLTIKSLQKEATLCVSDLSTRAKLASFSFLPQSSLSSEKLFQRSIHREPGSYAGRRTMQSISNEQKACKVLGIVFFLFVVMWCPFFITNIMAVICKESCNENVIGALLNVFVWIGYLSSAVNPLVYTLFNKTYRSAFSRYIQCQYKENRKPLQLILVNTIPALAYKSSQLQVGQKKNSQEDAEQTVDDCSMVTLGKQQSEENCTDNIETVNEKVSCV

On to `O=C1CC(c2c[nH]c3ccccc23)C(=O)N1CCCCN1CC=C(c2c[nH]c3ncccc23)CC1` (stereo not drawn) [Compound 4, 1-(4-(4-(1H-Pyrrolo[2,3-b]pyridin-3-yl)-3,6-dihydropyridin-1(2H)-yl)butyl)-3-(1H-indol-3-yl)pyrrolidine-2,5-dione], for which the Ki at human D2 receptor came out at 78 ± 7 nM; on human 5-HT7b receptor, 1420 ± 172 nM; in assay [1], 167 ± 13.8 nM; at human 5-HT6 receptor it was 1690 ± 186 nM; on α1-adrenoceptor, 87 ± 2 nM; in [2], 47 ± 5 nM. Further, the Ki turned out to be 1400 ± 71 nM at 5-HT2A receptor and 660 ± 60.2 nM at human 5-HT1A receptor [3]. In [1] (ratio of Ki values), the “Selectivity Ratio hNET/hSERT” value was determined as 3.5.

As for `COc1ccc2[nH]cc(C3CC(=O)N(CCCN4CC=C(c5c[nH]c6ncccc56)CC4)C3=O)c2c1` (stereo not drawn) [Compound 8, 1-(3-(4-(1H-Pyrrolo[2,3-b]pyridin-3-yl)-3,6-dihydropyridin-1(2H)-yl)propyl)-3-(5-methoxy-1H-indol-3-yl)pyrrolidine-2,5-dione], the Ki was found to be 1530 ± 76 nM on human 5-HT7b receptor; 2970 ± 138 nM at human 5-HT6 receptor; 265 ± 6.5 nM on α1-adrenoceptor; 23 ± 2.8 nM in assay [2]; 727 ± 43 nM at 5-HT2A receptor; 663 ± 15 nM in [4]. Besides, the “hNET screening procedure, displacement %” value in assay [1] (at 1 µM) is listed as 43% ^a.

As for `O=C1CC(c2c[nH]c3ccc(F)cc23)C(=O)N1CCCN1CC=C(c2c[nH]c3ccccc23)CC1` (stereo not drawn) [Compound 20], the Ki on human D2 receptor was 56 ± 7 nM; at human 5-HT7b receptor it was 30 ± 4 nM; in assay [5], 1.5 ± 0.2 nM; at human 5-HT6 receptor it was 257 ± 17 nM; at 5-HT2A receptor, 237 ± 17 nM; on human 5-HT1A receptor [6], 190 ± 8.5 nM.

As to `O=C1CC(c2c[nH]c3ccc(F)cc23)C(=O)N1CCCN1CC=C(c2c[nH]c3ncccc23)CC1` (stereo not drawn) [Compound 11, 1-(3-(4-(1H-Pyrrolo[2,3-b]pyridin-3-yl)-3,6-dihydropyridin-1(2H)-yl)propyl)-3-(5-fluoro-1H-indol-3-yl)pyrrolidine-2,5-dione], the Ki is 51 ± 6 nM on human D2 receptor; 1130 ± 89 nM on human 5-HT7b receptor; 1290 ± 147 nM on human 5-HT6 receptor; 9.2 ± 0.6 nM in assay [2]; 1160 ± 96 nM on 5-HT2A receptor; 288 ± 25.2 nM in assay [4]. The affinity on human 5-HT1A receptor [3] corresponds to a Ki of 128 nM. Further, in [4] (ratio of Ki values), the “Selectivity Ratio hDAT/hSERT” value is 31.3.
